Experimental data reported in paper PMC5635026, “Homo-PROTACs: bivalent small-molecule dimerizers of the VHL E3 ubiquitin ligase to induce self-degradation” (Nature Communications, 2017).
Values joined by “and” are separate entries in the source; they are usually repeats but may differ in a detail not shown here. Equal entries are not always repeated.

Experiments:
Format in all cases: binding
[1] = target: T1, VCB (Homo sapiens, UniProt P40337); test: AlphaLISA proximity assay of ternary complex formation; details: biotinylated VCB 20 nM, His6-VCB 20 nM, compound 0.5–200 nM
T1 construct: made in house
Protocol: Biotinylation of VCB. The VCB complex was mixed with EZ-link NHS-PEG4-biotin (Thermo Scientific) in a 1:1 molar ratio and incubated at room temperature for 1 h. The reaction was quenched using 1 M Tris-HCl, pH 7.5, and unreacted NHS-biotin was removed with a PD-10 MiniTrap desalting column (GE Healthcare) equilibrated with 20 mM HEPES, pH 7.5, 150 mM NaCl and 1 mM DTT.
AlphaLISA assay. All assays were performed at room temperature in 384-well plates with a final assay volume of 25 µL per well; plates were sealed with transparent film between addition of reagents. All reagents were prepared as 5× stocks diluted in 50 mM HEPES, pH 7.5, 100 mM NaCl, 0.1% (w/v) bovine serum albumin and 0.02% (w/v) 3-[(cholamidopropyl)dimethylammonio]-1-propanesulfonate (CHAPS). Biotinylated VCB (20 nM final) and His6-VCB (20 nM final) were incubated with a range of Homo-PROTAC concentrations (0.5–200 nM; three-in-five serial dilution) for 1 h. Anti-His acceptor beads (PerkinElmer, 10 µg ml^−1 final) were added and plates were incubated for another hour. Streptavidin-coated donor beads (PerkinElmer, 10 µg ml^−1 final) were added and plates were incubated for a final 1 h. Plates were read on a PHERAstar FS (BMG Labtech) using an optic module with an excitation wavelength of 680 nm and emission wavelength of 615 nm. Intensity values were plotted against PROTAC concentration on a log10 scale.

[2] = target: pVHL19 (Homo sapiens, UniProt P40337); test: Isothermal titration calorimetry (ITC) against VCB complex with short VHL isoform (V19CB); design: made in house; details: for ΔG / −TΔS / Kd / n / ΔH: 25 °C; for ΔG / −TΔS / α / ΔH: pVHL19; for Kd / n: pVHL19 (V19CB); for n: stoichiometry of binding; for α: avidity / cooperativity compared to VH032, ITC
Protocol: (§1) Protein expression and purification. Human proteins VHL (UniProt accession number: P40337), ElonginC (Q15369), and ElonginB (Q15370) were used for all protein expression. The short-isoform-containing VCB complex (V19CB) was expressed, purified and stored as described previously. For expression of the long-isoform-containing VCB complex (V30CB), N-terminally His6-tagged VHL (1–213), ElonginC (17–112) and ElonginB (1–104) were co-expressed in Escherichia coli BL21(DE3) at 20 °C for 18 h using 0.5 mM isopropyl β-D-1-thiogalactopyranoside (IPTG). E. coli cells were resuspended in binding buffer (50 mM HEPES, pH 8.0, 500 mM NaCl, 10 mM imidazole and 5 mM β-mercaptoethanol), lysed using a pressure cell homogenizer (Stansted Fluid Power), and lysate clarified by centrifugation. The supernatant was loaded onto a HisTrap FF affinity column (GE Healthcare) equilibrated with binding buffer, and bound protein was eluted using an imidazole gradient. The His6 tag was removed using thrombin protease (Sigma), and the untagged complex was dialyzed into binding buffer. V30CB was then loaded onto the HisTrap FF column a second time, allowing impurities to bind as the complex eluted without binding. The flow-through was dialyzed using a low-salt buffer (20 mM HEPES, pH 8.0, 25 mM NaCl and 1 mM DTT) and then loaded onto a Resource Q anion exchange column (GE Healthcare); bound protein was eluted across a linear NaCl gradient. V30CB was then additionally purified by size-exclusion chromatography using a Superdex-75 16/600 column (GE Healthcare) equilibrated with 20 mM HEPES, pH 7.5, 100 mM sodium chloride and 1 mM TCEP. All chromatography purification steps were performed using Äkta FPLC purification systems (GE Healthcare).
Isothermal titration calorimetry (ITC). Titrations were performed on an ITC200 micro-calorimeter (GE Healthcare). […] The final DMSO concentration was 0.15% v/v. VCB protein experiments were carried out in a buffer containing 20 mM Bis-tris propane, 150 mM NaCl, 1 mM TCEP, 0.15% v/v DMSO, pH 7.4. The titrations consisted of 19 injections of 2 µL compounds solution (150 µM, in the syringe) at a rate of 0.5 µl s^−1 at 120 s time intervals into the VCB protein solution (20 µM, in the cell). An initial injection of compound solution (0.4 µL) was made and discarded during data analysis. All experiments were performed at 25 °C, whilst stirring the syringe at 600 rpm. The data were fitted to a single binding site model to obtain the stoichiometry n, the dissociation constant K d and the enthalpy of binding ΔH using the Microcal LLC ITC200 Origin software provided by the manufacturer.

[3] = target: T2, V19CB (Homo sapiens, UniProt P40337); test: Size-exclusion chromatography (SEC) of complex formation with V19CB; details: compound 30 µM; for shift of VCB peak / ternary complex formation in SEC: VCB 50 µM
T2 construct: made in house
Protocol: as §1
Size-exclusion chromatography (SEC). SEC experiments were carried out in a ÄKTA pure system (GE Healthcare) at room temperature. The oligomeric state of the VCB complex in solution was analyzed by gel filtration in a buffer containing 20 mM Bis-Tris (pH 7), 150 mM NaCl and 1 mM 1,4-dithiothreitol (DTT) using a Superdex 200 Increase 10/300 GL column (GE Healthcare) calibrated with globular proteins of known molecular weight (GE Healthcare, 28-4038-41/42). […] Sample volume for each injection was 200 µl, and the flow rate was 0.5 ml min^−1. Peak elution was monitored using ultraviolet absorbance at 280 nm.

T2 sequence (P40337 54-213): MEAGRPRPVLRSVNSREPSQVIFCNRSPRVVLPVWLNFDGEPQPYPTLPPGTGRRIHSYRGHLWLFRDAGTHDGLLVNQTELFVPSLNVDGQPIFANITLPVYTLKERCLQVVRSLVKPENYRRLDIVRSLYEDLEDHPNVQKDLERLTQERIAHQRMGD
T2 sequence (Q15369 17-112 partner limits assumed): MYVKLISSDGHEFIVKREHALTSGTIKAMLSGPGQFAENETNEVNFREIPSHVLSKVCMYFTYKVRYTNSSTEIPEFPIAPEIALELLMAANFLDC
T2 sequence (Q15370 1-104 partner limits assumed): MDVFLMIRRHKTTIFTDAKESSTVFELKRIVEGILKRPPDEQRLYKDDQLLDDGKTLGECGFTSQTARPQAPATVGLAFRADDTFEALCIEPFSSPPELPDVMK
T1 sequence (P40337 54-213): as the sequence (P40337 54-213) above
T1 sequence (Q15369 17-112 partner limits assumed): as the sequence (Q15369 17-112 partner limits assumed) above
T1 sequence (Q15370 1-104 partner limits assumed): as the sequence (Q15370 1-104 partner limits assumed) above
pVHL19, sequence (P40337 54-213): as the sequence (P40337 54-213) above
pVHL19, sequence (Q15369 17-112 partner limits assumed): as the sequence (Q15369 17-112 partner limits assumed) above
pVHL19, sequence (Q15370 1-104 partner limits assumed): as the sequence (Q15370 1-104 partner limits assumed) above

Compound	ternary complex formation, AlphaLISA intensity [1]	ΔG ([2]; ITC)	−TΔS ([2]; ITC)	Kd ([2]; ITC)	n ([2]; ITC)	avidity (cooperativity α) compared to VH032 ([2]; ITC, VCB)	α [2]	molecular weight of species in shifted SEC peak ([3]; V19CB 50 µM)	ΔH ([2]; ITC)	shift of VCB peak / ternary complex formation in SEC [3]
Cc1ncsc1-c1ccc(CNC(=O)[C@@H]2C[C@@H](O)CN2C(=O)[C@@H](NC(=O)COCCOCCOCCOCCOCCOCC(=O)N[C@H](C(=O)N2C[C@H](O)C[C@H]2C(=O)NCc2ccc(-c3scnc3C)cc2)C(C)(C)C)C(C)(C)C)cc1 [CM11, N ^1 ,N ^20-bis((S)-1-((2S,4R)-4-hydroxy-2-((4-(4-methylthiazol-5-yl)benzyl)carbamoyl)pyrrolidin-1-yl)-3,3-dimethyl-1-oxobutan-2-yl)-3,6,9,12,15,18-hexaoxaicosanediamide]	highest intensity signal	–10.9 ± 0.1 kcal mol^−1	1.4 kcal/mol and 1.4 ± 0.8 kcal/mol	11 ± 2 nM	0.6 ± 0.01	> 18 fold	18	~ 90 kDa		
Cc1ncsc1-c1ccc(CNC(=O)[C@@H]2C[C@@H](O)CN2C(=O)[C@@H](NC(=O)COCCOCCOCCOCCOCC(=O)N[C@H](C(=O)N2C[C@H](O)C[C@H]2C(=O)NCc2ccc(-c3scnc3C)cc2)C(C)(C)C)C(C)(C)C)cc1 [CM10, N ^1 ,N ^17-bis((S)-1-((2S,4R)-4-hydroxy-2-((4-(4-methylthiazol-5-yl)benzyl)carbamoyl)pyrrolidin-1-yl)-3,3-dimethyl-1-oxobutan-2-yl)-3,6,9,12,15-pentaoxaheptadecanediamide]	negligible levels of complex formation	–10.2 ± 0.1 kcal mol^−1	–0.8 ± 0.2 kcal mol^−1	32 ± 5 nM	0.73 ± 0.01		6		–9.4 ± 0.1 kcal mol^−1	formation of a ternary complex eluting at identical retention volume when compared to CM11
Cc1ncsc1-c1ccc(CNC(=O)[C@@H]2C[C@@H](O)CN2C(=O)[C@@H](NC(=O)COCCOCCOCCOCC(=O)N[C@H](C(=O)N2C[C@H](O)C[C@H]2C(=O)NCc2ccc(-c3scnc3C)cc2)C(C)(C)C)C(C)(C)C)cc1 [CM09, N ^1 ,N ^14-bis((S)-1-((2S,4R)-4-hydroxy-2-((4-(4-methylthiazol-5-yl)benzyl)carbamoyl)pyrrolidin-1-yl)-3,3-dimethyl-1-oxobutan-2-yl)-3,6,9,12-tetraoxatetradecanediamide]	negligible levels of complex formation	–10.3 ± 0.2 kcal mol^−1	–3.5 ± 0.5 kcal mol^−1	41 ± 15 nM	0.98 ± 0.09		4		–6.9 ± 0.3 kcal mol^−1	formation of a ternary complex eluting at identical retention volume when compared to CM11
